According to US7960130B2, “Method for activation of transient receptor potential cation channel, subfamily A, member 1 using acetaldehyde” (Korea University Industry and Academy Cooperation Foundation, priority 2008, dated 2011):

How the values were obtained:
mTRPA1 = molecular target: T1, mTRPA1 (Mus musculus, UniProt Q8BLA8); test: Fluo-3 calcium imaging of mTRPA1-transfected HEK293T cells; format: cell-based
T1 construct: expressed in transfected cells; host or cells: HEK293T (ATCC CRL-11268), pcDNA5/FRT
Procedure: (§1) Particularly, the HEK293T cell line was transiently transfected with individual TRP channel plasmid (pcDNA3.1 containing polynucleotide encoding hTRPA1, rTRPV2, rTRPV1 or mTRPV4; pcDNA5/FRT containing polynucleotide encoding mTRPA1, hTRPV3 or mTRPM8) 3 μg per 35-mm dish and 600 ng/well of pcDNA3 (Invitrogen Corp., USA; containing green fluorescent protein (GFP) cDNA) using Fugene6 (Roche Diagnostics, USA) according to manufacturer's instruction. The transformed cells were cultured in DMEM/F12 containing 10% FBS and 1% penicillin/streptomycin in a CO2 incubator for 24 hours. The cells were replated onto poly-L-lysine-coated glass coverslips, followed by further culture for 10-24 hours.
Calcium imaging was performed with a confocal microscope (LSM5 Pascal, Carl Zeiss, Germany), and time-lapse images (488 nm excitation/514 nm emission) were collected every 3 seconds using Carl Zeiss ratio tool software (Carl Zeiss, Germany).
(§2) Stock solutions were made using water or ethanol, and were diluted with test solutions before use.

trigeminal neurons = test: Fluo-3 calcium imaging of cultured mouse trigeminal neurons
Procedure: The trigeminal neurons prepared thereby were then plated onto poly-L-lysine-coated coverslips in DMEM/F12 containing 10% FBS, 1% penicillin/streptomycin and 5 ng/Ml of 2.5S NGF (Invitrogen, USA), nerve growth factor (Invitrogen), followed by culture in a CO2 incubator for 48-72 hours.

TRPV2 = molecular target: T2, TRPV2 (Rattus norvegicus, UniProt Q9WUD2, A713V/L151P/T158I); test: Calcium imaging of TRP transfected cell lines treated with acetaldehyde (TRPV2); format: cell-based; conditions: 1 mM acetaldehyde
T2 construct: expressed in transfected cells; host or cells: HEK293T (ATCC CRL-11268), pcDNA3.1
T2 sequence (Q9WUD2 1-761 L151P/T158I/A713V): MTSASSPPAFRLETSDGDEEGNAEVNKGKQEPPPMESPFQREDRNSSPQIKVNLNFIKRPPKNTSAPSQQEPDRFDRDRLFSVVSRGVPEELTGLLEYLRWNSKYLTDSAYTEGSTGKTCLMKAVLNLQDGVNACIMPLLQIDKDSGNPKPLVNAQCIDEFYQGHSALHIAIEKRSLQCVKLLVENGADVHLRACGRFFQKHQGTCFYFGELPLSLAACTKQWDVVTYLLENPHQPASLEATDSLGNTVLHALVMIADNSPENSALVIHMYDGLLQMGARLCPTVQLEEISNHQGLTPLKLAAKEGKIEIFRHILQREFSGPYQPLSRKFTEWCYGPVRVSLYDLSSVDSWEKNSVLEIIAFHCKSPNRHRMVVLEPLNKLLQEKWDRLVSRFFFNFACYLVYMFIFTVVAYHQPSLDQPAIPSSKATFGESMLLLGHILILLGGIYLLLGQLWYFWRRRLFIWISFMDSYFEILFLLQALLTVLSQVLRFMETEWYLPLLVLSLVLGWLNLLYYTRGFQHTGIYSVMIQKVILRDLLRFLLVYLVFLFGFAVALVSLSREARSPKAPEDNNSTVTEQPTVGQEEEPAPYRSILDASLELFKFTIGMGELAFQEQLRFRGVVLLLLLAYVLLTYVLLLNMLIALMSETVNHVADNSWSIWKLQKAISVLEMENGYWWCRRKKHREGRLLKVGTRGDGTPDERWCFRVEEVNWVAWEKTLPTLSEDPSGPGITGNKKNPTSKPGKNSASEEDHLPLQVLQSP
Excerpt: (§3) HEK293T cell line (ATCC CRL-11268) was transiently transfected with plasmid DNA containing polynucleotide encoding hTRPA1 (SEQ. ID. NO: 1), rTRPV2 (SEQ. ID. NO: 2), rTRPV1 (SEQ. ID. NO: 3), mTRPV4 (SEQ. ID. NO: 4), mTRPA1 (SEQ. ID. NO: 5), hTRPV3 (SEQ. ID. NO: 6) or mTRPM8 (SEQ. ID. NO: 7).
as §1
(§4) Particularly, the transfected cell line of Example <4-1> was loaded with Fluo-3AM (5 μM; Sigma Aldrich, USA) in the bath solution (140 mM NaCl, 5 mM KCl, 2 mM CaCl2, 1 mM MgCl2, 10 mM HEPES; adjusted to pH 7.4 with NaOH) containing 0.02% pluronic acid (Invitrogen, USA). […]

TRPA1 [1] = test: Whole-cell voltage-clamp recording of TRPA1 transfected cell line; format: cell-based; conditions: 1 mM acetaldehyde, 300 μM cinnamaldehyde, voltage ramp -80 to +80 mV, n=5
Procedure: as §1, §2
This experiment was repeated 5 times.

TRPA1 [2] = test: Calcium imaging of TRP transfected cell lines treated with acetaldehyde (TRPA1); format: cell-based; conditions: 1 mM acetaldehyde
Excerpt: as §3, §1, §4

T1 sequence (Q8BLA8 whole entry): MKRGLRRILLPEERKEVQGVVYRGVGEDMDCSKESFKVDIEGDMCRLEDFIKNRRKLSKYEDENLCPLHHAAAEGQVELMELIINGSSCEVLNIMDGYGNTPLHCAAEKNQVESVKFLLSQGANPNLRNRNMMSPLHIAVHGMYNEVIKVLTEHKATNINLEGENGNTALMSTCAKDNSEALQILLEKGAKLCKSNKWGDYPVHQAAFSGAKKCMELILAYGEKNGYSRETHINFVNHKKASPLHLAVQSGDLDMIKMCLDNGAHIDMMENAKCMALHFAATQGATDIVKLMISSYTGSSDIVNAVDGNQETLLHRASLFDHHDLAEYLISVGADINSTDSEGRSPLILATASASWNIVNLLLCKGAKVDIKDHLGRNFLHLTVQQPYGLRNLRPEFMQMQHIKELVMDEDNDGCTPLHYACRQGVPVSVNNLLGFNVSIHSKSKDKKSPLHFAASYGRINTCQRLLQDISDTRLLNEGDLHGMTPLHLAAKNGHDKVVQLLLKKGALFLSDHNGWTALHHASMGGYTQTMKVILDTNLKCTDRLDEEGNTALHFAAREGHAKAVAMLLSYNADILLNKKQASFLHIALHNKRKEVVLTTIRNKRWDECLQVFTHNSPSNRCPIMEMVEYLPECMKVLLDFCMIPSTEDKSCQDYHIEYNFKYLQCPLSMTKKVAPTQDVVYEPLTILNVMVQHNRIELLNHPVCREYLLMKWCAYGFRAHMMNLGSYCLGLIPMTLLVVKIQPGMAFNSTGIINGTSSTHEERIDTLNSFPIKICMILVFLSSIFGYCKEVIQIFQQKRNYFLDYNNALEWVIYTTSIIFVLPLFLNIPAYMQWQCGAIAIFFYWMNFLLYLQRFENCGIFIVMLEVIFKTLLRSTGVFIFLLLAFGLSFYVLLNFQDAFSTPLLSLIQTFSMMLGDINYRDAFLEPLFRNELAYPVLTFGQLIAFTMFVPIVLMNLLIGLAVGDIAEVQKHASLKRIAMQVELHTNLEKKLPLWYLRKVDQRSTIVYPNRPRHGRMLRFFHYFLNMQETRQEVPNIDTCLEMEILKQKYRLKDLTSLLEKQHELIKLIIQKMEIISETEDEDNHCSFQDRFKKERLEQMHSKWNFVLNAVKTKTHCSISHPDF

CC=O [acetaldehyde]
EC50 (mTRPA1): 1190 µM | n of dose-response curve (Hill plot) on mTRPA1 (mTRPA1; acetaldehyde 1 to 10^4 μM, Fluo-3 calcium imaging): 3.1 | maximum efficacy in mTRPA1 responses compared with hTRPA1 (mTRPA1; dose-response, calcium imaging): greater maximum efficacy | acetaldehyde response of capsaicin-cinnamaldehyde-positive neurons (trigeminal neurons; 1 mM acetaldehyde, n=19): did response | acetaldehyde response of menthol-positive neurons (trigeminal neurons; 1 mM acetaldehyde, n=36, considered to express TRPM8): did not show response | acetaldehyde response of capsaicin-positive/cinnamaldehyde-negative neurons (trigeminal neurons; 1 mM acetaldehyde, n=102, considered to express TRPV1): did not show response | EC50 (trigeminal neurons; Mus musculus, Neuron, read-out: EC50 of acetaldehyde alone (Kd of dose-response curve) in trigeminal neurons): 740 µM | maximum efficacy heightened with PGE2 versus acetaldehyde alone (trigeminal neurons; acetaldehyde + 1 μM PGE2): 1.2 fold | activation of TRPV2 by acetaldehyde (TRPV2): only TRPA1 was activated | whole-cell current response in TRPA1 expressing cells (TRPA1 [1]): pronounced outwardly rectifying current occurred | activation of TRPA1 by acetaldehyde (TRPA1 [2]): only TRPA1 was activated
